Key:
Type in all cases: cell-based
[1] = test system: Jatropha curcas zygotic embryo and endosperm explants; experiment: Type I somatic embryo (TISE) formation on solid media with 2,4-D; conditions: for TISE (%) / TISE Count: 0.1 mg/l kinetin, 8 weeks
Description: Developing fruits were surfaced sterilized. The immature zygotic embryos and endosperms (En) were separated from each other using a surgical scalper blade. Zygotic embryos longer than 0.5 cm were further cut at the cotyledon-hypocotyl junction to produce explants of cotyledons only and hypocotyls with the root radicals. Zygotic embryos shorter than 0.5 cm were cultured intact as they are too fragile. We classified these explants as cotyledons (Cot); hypocotyls with root radicals (Rh); intact embryos (Eb) and endosperm (En).
The explants were cultured on a solid medium comprising MS salt, B5 vitamins and various concentrations of 2,4-D ranging from 0.1 to 20 mg/L. Kinetin was added at 0.1 mg/L in some of the treatments. Somatic embryos started to emerge without obvious sign of calli formation around 10th day, which predominantly formed on the edge of the endosperm tissues where the embryo had been detached. The somatic embryos most likely originated from the residual diploid cells of the zygotic embryo tissue attached on the endosperm. […] These somatic embryos developed speedily and predominantly matured as single embryo (FIG. 1). We called them Type I Somatic Embryo (TISE).

[2] = test system: Jatropha curcas calli from zygotic embryo explants; experiment: Type II somatic embryo (TIISE) formation after shifting calli to hormone-free DGA medium; conditions: then DGA medium 6 weeks
Description: Yellowish or white calli were observed on the explants from 3rd week if subcultured in the same medium. Extensively tested variables for induction of somatic embryogenesis were media of numerous compositions. Combinations of MS salt, Gamborg B5 salts, MS vitamins, Gamborg B5 vitamins; presence or absence of NH4NO3; amount of KNO3 (1.9-3.8 g/l); organic nitrogen source, e.g., free amino acids, casein hydrolysate; trace amount of hormones, e.g., kinetin (0-1 mg/l), benzyl adenine (0-1 mg/l); choice of carbon sources, e.g., glucose, sucrose and maltose; and activated carbon (5 g/l). In a large number of media, the calli died within 1-2 weeks when shifted into a new medium. […] An example of the medium is DGA medium in which 1 g/l glutamine and 0.5 g/l asparagines was supplemented. A cluster of somatic embryos of various stages emerged around the 10th day after the medium shift to DGA (FIG. 2).
Somatic embryos formed in DGA medium underwent multiplication and maturation simultaneously. We called them Type II Somatic Embryos (TIISE). TIISEs were preferentially formed on explants previously cultured in media containing higher concentration of 2,4-D, for example, 2-5 mg/l during the first induction culture (Table 1).

[3] = test system: Jatropha curcas immature zygotic embryo and endosperm explants; experiment: Effect of 2,4-D concentration and zygotic embryo size on somatic embryo and calli formation; set-up: key to Explant Development Root Length / Explant Development Hypocotyl Length / Explant Development Calli Size: The relative size of explants and calli are indicated by the number of + symbols.; ++: The relative size of explants and calli are indicated by the number of + symbols.; +++: The relative size of explants and calli are indicated by the number of + symbols.; ++++: The relative size of explants and calli are indicated by the number of + symbols.; +++++: The relative size of explants and calli are indicated by the number of + symbols; conditions: end of 3rd week
Description: Developing fruits were surfaced-sterilized and dissected to yield 200 immature zygotic embryos that were shorter than 1.5 cm in length. The embryos were separated into two groups, “<0.5 cm” and “0.5-1.5 cm”. The endosperm and zygotic embryo explants were cultured on solid media with various concentration of 2,4-D. On the 5th day, the embryos, which became greenish, enlarged and hardened, were removed from the endosperms and cut into small pieces of about 0.25 cm^2 each. The endosperm and embryo explants were cultured separately on the same media in the dark at 28° C. It was confirmed that most somatic embryos were produced on the endosperm explants where the embryos had been detached. It is apparent that, although 2,4-D was not essential for initiation of somatic embryos; […] concentration of it causes excessive expansion of explants.

Which “TISE (%)” value ([1]; 2,4-D 0.1 mg/L) does the source give for `O=C(O)COc1ccc(Cl)cc1Cl` [2,4-D, 2,4-dichlorophenoxyacetic acid] here?
The value was 84%.

And the “TISE Count” value ([1]; 2,4-D 0.1 mg/L, 19 explants)?
Its value is 16.

And the “TISE (%)” value ([1]; 2,4-D 0.2 mg/L)?
The value was 54%.

What about the “TISE Count” value ([1]; 2,4-D 0.2 mg/L, 28 explants) of the same compound?
Its value is 15.

And the “TISE (%)” value ([1]; 2,4-D 0.5 mg/L)?
The value was 50%.

And the “TISE Count” value ([1]; 2,4-D 0.5 mg/L, 16 explants)?
Its value is 8.

And the “TISE (%)” value ([1]; 2,4-D 1 mg/L)?
The value was 42%.

And the “TISE Count” value ([1]; 2,4-D 1 mg/L, 19 explants)?
Its value is 8.

And the “TISE (%)” value ([1]; 2,4-D 2 mg/L)?
The value was 76%.

What about the “TISE Count” value ([1]; 2,4-D 2 mg/L, 25 explants) of the same compound?
The value was 19.

And the “TISE (%)” value ([1]; 2,4-D 5 mg/L)?
Its value is 57%.

What about the “TISE Count” value ([1]; 2,4-D 5 mg/L, 23 explants) of the same compound?
The value was 13.

And the “TISE (%)” value ([1]; 2,4-D 10 mg/L)?
The value was 43%.

And the “TISE Count” value ([1]; 2,4-D 10 mg/L, 21 explants)?
Its value is 9.

And the “TISE (%)” value ([1]; 2,4-D 20 mg/L)?
Its value is 38%.

What about the “TISE Count” value ([1]; 2,4-D 20 mg/L, 13 explants) of the same compound?
The value was 5.

And the TISE formation ([1]; 2,4-D 0.1 to 20 mg/L)?
Its TISE formation is “appeared to be inhibitory at high levels”.

And the “TIISE (%)” value ([2]; 2,4-D 0.1 mg/L 4 weeks)?
The value was 11%.

What about the “TIISE Count” value ([2]; 2,4-D 0.1 mg/L 4 weeks, 19 explants) of the same compound?
Its value is 2.

What about the “TIISE (%)” value ([2]; 2,4-D 0.2 mg/L 4 weeks) of the same compound?
Its value is 4%.

What about the “TIISE Count” value ([2]; 2,4-D 0.2 mg/L 4 weeks, 28 explants) of the same compound?
The value was 1.

And the “TIISE (%)” value ([2]; 2,4-D 0.5 mg/L 4 weeks)?
Its value is 19%.

What about the “TIISE Count” value ([2]; 2,4-D 0.5 mg/L 4 weeks, 16 explants) of the same compound?
The value was 3.

And the “TIISE (%)” value ([2]; 2,4-D 1 mg/L 4 weeks)?
The value was 0%.

And the “TIISE Count” value ([2]; 2,4-D 1 mg/L 4 weeks, 19 explants)?
Its value is 0.

What about the “TIISE (%)” value ([2]; 2,4-D 2 mg/L 4 weeks) of the same compound?
The value was 36%.

And the “TIISE Count” value ([2]; 2,4-D 2 mg/L 4 weeks, 25 explants)?
The value was 9.

And the “TIISE (%)” value ([2]; 2,4-D 5 mg/L 4 weeks)?
Its value is 39%.

And the “TIISE Count” value ([2]; 2,4-D 5 mg/L 4 weeks, 23 explants)?
The value was 9.

What about the “TIISE (%)” value ([2]; 2,4-D 10 mg/L 4 weeks) of the same compound?
The value was 24%.

What about the “TIISE Count” value ([2]; 2,4-D 10 mg/L 4 weeks, 21 explants) of the same compound?
The value was 5.

What about the “TIISE (%)” value ([2]; 2,4-D 20 mg/L 4 weeks) of the same compound?
The value was 23%.

And the “TIISE Count” value ([2]; 2,4-D 20 mg/L 4 weeks, 13 explants)?
The value was 3.

And the “Explant Development Calli Size” value ([3]; 2,4-D 0.1 mg/L)?
Its value is “++”.

And the “Explant Development Hypocotyl Length” value ([3]; 2,4-D 0.1 mg/L)?
The value was “+++++”.

What about the “Explant Development Root Length” value ([3]; 2,4-D 0.1 mg/L) of the same compound?
Its value is “++++”.

And the “Explant Development Calli Size” value ([3]; 2,4-D 0.2 mg/L)?
Its value is “++”.

What about the “Explant Development Hypocotyl Length” value ([3]; 2,4-D 0.2 mg/L) of the same compound?
Its value is “++++”.

What about the “Explant Development Root Length” value ([3]; 2,4-D 0.2 mg/L) of the same compound?
Its value is “+++”.

What about the “Explant Development Calli Size” value ([3]; 2,4-D 0.5 mg/L) of the same compound?
Its value is “+++”.

What about the “Explant Development Hypocotyl Length” value ([3]; 2,4-D 0.5 mg/L) of the same compound?
Its value is “+++”.

And the “Explant Development Root Length” value ([3]; 2,4-D 0.5 mg/L)?
The value was “++”.

What about the “Explant Development Calli Size” value ([3]; 2,4-D 1 mg/L) of the same compound?
The value was “++++”.

And the “Explant Development Hypocotyl Length” value ([3]; 2,4-D 1 mg/L)?
Its value is “+++”.

And the “Explant Development Root Length” value ([3]; 2,4-D 1 mg/L)?
The value was “++”.

And the “Explant Development Calli Size” value ([3]; 2,4-D 2 mg/L)?
The value was “++++”.

What about the “Explant Development Hypocotyl Length” value ([3]; 2,4-D 2 mg/L) of the same compound?
The value was “+”.

And the “Explant Development Root Length” value ([3]; 2,4-D 2 mg/L)?
The value was “+”.

What about the “Explant Development Calli Size” value ([3]; 2,4-D 5 mg/L) of the same compound?
Its value is “+++”.

And the “Explant Development Hypocotyl Length” value ([3]; 2,4-D 5 mg/L)?
Its value is “+”.

What about the “Explant Development Root Length” value ([3]; 2,4-D 5 mg/L) of the same compound?
Its value is “+”.

What about the “Explant Development Calli Size” value ([3]; 2,4-D 10 mg/L) of the same compound?
Its value is “+++”.

And the “Explant Development Hypocotyl Length” value ([3]; 2,4-D 10 mg/L)?
The value was “+”.

And the “Explant Development Root Length” value ([3]; 2,4-D 10 mg/L)?
Its value is “+”.

And the “Explant Development Calli Size” value ([3]; 2,4-D 15 mg/L)?
Its value is “++”.

What about the “Explant Development Hypocotyl Length” value ([3]; 2,4-D 15 mg/L) of the same compound?
Its value is “+”.

What about the “Explant Development Root Length” value ([3]; 2,4-D 15 mg/L) of the same compound?
The value was “+”.

And the “Explant Development Calli Size” value ([3]; 2,4-D 20 mg/L)?
Its value is “+”.

And the “Explant Development Hypocotyl Length” value ([3]; 2,4-D 20 mg/L)?
The value was “+”.

What about the “Explant Development Root Length” value ([3]; 2,4-D 20 mg/L) of the same compound?
The value was “+”.

And the Calli formation [3]?
The Calli formation was “more favorable at about 0.5-10 mg/l”.

— US8691576B2, “Regeneration and mass propagation of Jatropha curcas through somatic embryogenesis” (Joil (S) Pte Ltd., priority 2008, dated 2014)
